Each compound was assayed on γ-glutamyl carboxylation reaction (human Gas6 in Gas6-HEK293 cells) (assay: Inhibitory action on γ-glutamyl carboxylation reaction (secreted γ-glutamyl carboxylated Gas6 by ELISA)). Conditions: vitamin K2 100 nM, exposure 18 to 20 hours, ELISA absorbance at 620 nm, read-out: IC50 (50% inhibitory concentration for the γ-glutamyl carboxylation reaction).
Assay type: cell-based
Method: Measurement of Inhibitory Action on γ-Glutamyl Carboxylation Reaction
Cells were used that expressed Gas6 excreted outside the cells when subjected to γ-glutamyl carboxylation, and inhibitory action on γ-glutamyl carboxylation reaction was assessed by measuring the secreted amount of extracellular Gas6 by ELISA method.
(A) Preparation for Assay Plate Containing Solid-Phase Anti-Human Gas6 Antibody
Goat anti-human Gas6 antibody (R&D Systems, Inc.) was diluted to 1 μg/ml with Dulbecco's phosphate-buffered saline, and 40 μl aliquots thereof were dispensed into each well of a 384-well microplate. After immobilizing the antibody to the solid phase by allowing it to stand at 4° C. overnight or at room temperature for 2 hours or more, each well was washed three times with wash buffer (10 mM Tris-HCl pH 7.4, 150 mM sodium chloride, 0.05% Tween20). After removing the supernatant, 80 μl aliquots of a 1% aqueous solution of Block Ace (Dainippon Sumitomo Pharma) were dispensed into each well and allowed to react at room temperature for 1 hour or more.
(B) Exposure of Test Compounds to Cells Stably Expressing Human Gas6
Cells that stably express human Gas6 (Gas6-HEK293), which were prepared by inserting human Gas6 gene (inserted between SalI and NotI within multiple cloning sites of pCIneo expression vector) into HEK293 cells, were grown and sub-cultured using Dulbecco's modified Eagle's medium (DMEM) containing 10% fetal calf serum (FCS). On the day before ELISA measurement, the Gas6-HEK293 cells were detached with trypsin-EDTA, dispersed in DMEM containing 10% FCS, and disseminated into each well of a 384-well, collagen type I-coated plate (Becton-Dickinson) in 30 μl aliquots containing 1.0×10^4 cells each, followed by culturing for 3 to 4 hours at 5% CO2 and 37° C. 30 μl aliquots of DMEM containing test compound solutions, prepared at various concentrations by dissolving in DMSO, and vitamin K2 at 0.1% and 100 nM, respectively (indicating final concentrations in both cases) were added to each well followed by additionally culturing for 18 to 20 hours.
(C) Quantification of γ-Glutamyl Carboxylated Gas6 by ELISA and Calculation of 50% Inhibitory Concentrations of γ-Glutamyl Carboxylation Reaction
After removing the 1% Block Ace aqueous solution from the preliminarily prepared assay plates containing solid phase anti-human Gas6 antibody, the culture supernatant of Gas6-HEK293 cells exposed to the test compounds was collected and 40 μl aliquots were dispensed into each well followed by allowing to react at room temperature for 2 hours (Step 1). The culture supernatant was removed and each well was washed three times with wash buffer. Thereafter, the same washing procedure was carried out between Steps 2 and 3 and Steps 3 and 4. Subsequently, 40 μl aliquots of mouse anti-human […] antibody (American Diagnostica inc.), adjusted to 0.5 μg/ml with immunoreaction buffer (100 mM Tris-HCl pH 7.4, 0.05% Tween20, 0.1% Block Ace), were dispensed into each well and allowed to react at room temperature for 1 hour (Step 2). Next, 40 μl aliquots of alkaline phosphatase-conjugated anti-mouse IgG antibody adjusted to 1.0 μg/ml with immunoreaction buffer were dispensed into each well and allowed to react at room temperature for 1 hour (Step 3). 40 μl aliquots of BluePhos Microwell (KPL) were dispensed into each well, and after incubating at room temperature for 10 minutes (Step 4), 20 μl aliquots of 5% EDTA were added to each well to stop the color development reaction, followed by measurement of absorbance at 620 nm (Step 5). […]

SMILES | IC50 [nM]
CC(C)[C@H](NC(=O)c1nc2ccccc2nc1O)C(=O)N1CCC(Oc2ccc(C(F)(F)F)cn2)CC1 [Example 36, 3-Hydroxy-N-{(1S)-2-methyl-1-[(4-{[5-(trifluoromethyl)pyridin-2-yl]oxy}piperidin-1-yl)carbonyl]propyl}quinoxaline-2-carboxamide] | 1.8
CC(C)[C@H](NC(=O)c1nc2ccccc2nc1O)C(=O)N1CCC(C(=O)c2ccc(F)cc2F)CC1 [Example 98, N-[(1S)-1-{[4-(2,4-Difluorobenzoyl)piperidin-1-yl]carbonyl}-2-methylpropyl]-3-hydroxyquinoxaline-2-carboxamide] | 3.5
CC(C)[C@H](NC(=O)c1nc2ccccc2nc1O)C(=O)N1CCC(Oc2cnc(-c3ccccc3)nc2)CC1 [Example 81, 3-Hydroxy-N-[(1S)-2-methyl-1-({4-[(2-phenylpyrimidin-5-yl)oxy]piperidin-1-yl}carbonyl)propyl]quinoxaline-2-carboxamide] | 4.6
CC(C)[C@H](NC(=O)c1nc2ccccc2nc1O)C(=O)N1CCC(Oc2ncc(N3CCCCC3)cn2)CC1 [Example 96, 3-Hydroxy-N-[(1S)-2-methyl-1-({4-[(5-piperidin-1-ylpyrimidin-2-yl)oxy]piperidin-1-yl}carbonyl)propyl]quinoxaline-2-carboxamide] | 9.6
CC[C@H](NC(=O)c1nc2ccccc2nc1O)C(=O)N1CCC(Oc2ccc(F)cn2)CC1 [Example 12, N-[(1S)-1-({4-[(5-Fluoropyridin-2-yl)oxy]piperidin-1-yl}carbonyl)propyl]-3-hydroxyquinoxaline-2-carboxamide] | 4.2
CC(C)[C@H](NC(=O)c1nc2ccccc2nc1O)C(=O)N1CCC(Oc2ccc(C(F)(F)F)cc2)CC1 [Example 62, 3-Hydroxy-N-[(1S)-2-methyl-1-({4-[4-(trifluoromethyl)phenoxy]piperidin-1-yl}carbonyl)propyl]quinoxaline-2-carboxamide] | 3.6
CC(C)[C@H](NC(=O)c1nc2ccccc2nc1O)C(=O)N1CCC(Oc2ncc(F)cc2F)CC1 [Example 49, N-[(1S)-1-({4-[(3,5-Difluoropyridin-2-yl)oxy]piperidin-1-yl]carbonyl)-2-methylpropyl}-3-hydroxyquinoxaline-2-carboxamide] | 4.3
CC(C)[C@H](NC(=O)c1nc2ccccc2nc1O)C(=O)N1CCC(Oc2ccc(F)cc2Br)CC1 [Example 21, N-[(1S)-1-{[4-(2-Bromo-4-fluorophenoxy)piperidin-1-yl]carbonyl}-2-methylpropyl]-3-hydroxyquinoxaline-2-carboxamide] | 0.89
CC(C)[C@H](NC(=O)c1nc2ccccc2nc1O)C(=O)N1CCC(Oc2ncc(Br)cn2)CC1 [Example 65, N-[(1S)-1-({4-[(5-Bromopyrimidin-2-yl)oxy]piperidin-1-yl}carbonyl)-2-methylpropyl]-3-hydroxyquinoxaline-2-carboxamide] | 20
CC(C)(O)[C@H](NC(=O)c1nc2ccccc2nc1O)C(=O)N1CCC(Oc2ccc(F)cc2)CC1 [Example 69, N-[(1S)-1-{[4-(4-Fluorophenoxy)piperidin-1-yl]carbonyl}-2-hydroxy-2-methylpropyl]-3-hydroxyquinoxaline-2-carboxamide] | 3.4
CC(C)[C@H](NC(=O)c1nc2ccccc2nc1O)C(=O)N1CCC(Oc2ccc(C(F)(F)F)nc2)CC1 [Example 84, 3-Hydroxy-N-{(1S)-2-methyl-1-[(4-{[6-(trifluoromethyl)pyridin-3-yl]oxy}piperidin-1-yl)carbonyl]propyl}quinoxaline-2-carboxamide] | 5.5
CC[C@H](NC(=O)c1nc2ccccc2nc1O)C(=O)N1CCC(Oc2ccc(C#N)cc2)CC1 [Example 11, N-[(1S)-1-{[4-(4-Cyanophenoxy)piperidin-1-yl]carbonyl}propyl]-3-hydroxyquinoxaline-2-carboxamide] | 6.5
C[C@H](NC(=O)c1nc2ccccc2nc1O)C(=O)N1CCC(Oc2ccc(Cl)cc2)CC1 [Example 1, N-{(1S)-2-[4-(4-Chlorophenoxy)piperidin-1-yl]-1-methyl-2-oxoethyl}-3-hydroxyquinoxaline-2-carboxamide] | 8.4

— US20110053933A1, “HYDROXYQUINOXALINECARBOXAMIDE DERIVATIVE” (DAIICHI SANKYO COMPANY, LIMITED, priority 2008, published 2011)
